Measurements as given in US20090060873A1, “Novel synthetic triterpenoids and methods of use in the treatment and prevention of multiple scleroris” (Reata Pharmaceuticals, Inc., priority 2007, published 2009).
Entries after “also recorded” stand apart in the source; their conditions may differ.

Experiments:
[1] = Brain levels of triterpenoids in mice fed compound in diet (LC/MS)
heme oxygenase-1 (HO-1) = conditions: nanomolar concentrations; cited from earlier work
NF-κB = NF-κB activated by TNF, IL-1β, phorbol ester, okadaic acid, hydrogen peroxide, LPS, cigarette smoke; cited from earlier work
MOG-induced EAE [2] = assay: MOG-induced rapidly progressive EAE model, treatment, clinical score; format: in vivo, mouse; conditions: 100 nmol (~2.8 mg/kg) IP, Q2Dx4, in 7.5% PBST, n=2/group
[3] = Tissue distribution of CDDO-Me in cynomolgus monkeys after 3 days of oral dosing; format: in vivo; conditions: cynomolgus monkey, about 3 h after last dose, sesame oil vehicle
Method: Experiments using CDDO-Me (RTA-402) were also conducted on 1 male and 1 female cynomolgus monkey (origin: Vietnam) between the ages of 2 and 3 years and weighing approximately 1.7 kg. Each received the test article (CDDO-Me in sesame oil) at 75 mg/kg/day via oral gavage administered at a volume of 5 mL/kg on Days 1, 2, and 3. Individual doses were based on the most recently obtained body weights. Blood samples were collected from the femoral artery/vein for determination of the plasma concentrations of the test article at 0.5, 1.5, 3, and 12 hours after dosing on Days 1 and 2 and at 0.5, 1.5, and 3 hours after dosing (±0.5 hour) on Day 3.
At the termination of the study (approximately three hours after dosing on Day 3), all animals were euthanized and tissues collected. Samples (approximately 1 g or greater) of the adipose tissue, brain, colon, cheek pouch (buccal mucosa), heart, ileum, kidney, liver, lung, mammary glands, ovaries, pancreas, prostate, and bone marrow from the femur (as much as possible) were collected and frozen at approximately −20° C. for analysis for the presence of the test article. All other tissues and organs were discarded.
In Table 1 nM is ng/mL×1000/505.8, where 505.8 is the molecular weight of RTA-402 using the approximation that the density of the tissue is that of water.

MOG-induced EAE [4] = assay: Prophylactic treatment in MOG EAE model; format: in vivo, mouse; conditions: 100 nanomoles IP, pre and/or post MOG (Day -1, 1, 3, 5); FIGS. 23, 24
Method: FIGS. 23 & 24—Prophylactic Treatment of CDDO-Me (RTA 402) or CDDO-TFEA (RTA-404) Delays Induction of Symptoms in Model of Multiple Sclerosis.
In prophylactic studies (FIGS. 23-24) the following design was used:
Day-1: 100 nanomoles IP RTA 404 (2.9 mg/kg) or RTA 402 (2.5 mg/kg) in pre and pre/post groups
Day 1: 100 nanomoles IP RTA 404 (2.9 mg/kg) or RTA 402 (2.5 mg/kg) in post and pre/post groups
Day 3: 100 nanomoles IP RTA 404 (2.9 mg/kg) or RTA 402 (2.5 mg/kg) in post and pre/post groups
Day 5: 100 nanomoles IP RTA 404 (2.9 mg/kg) or RTA 402 (2.5 mg/kg) in post and pre/post groups

CNC(=O)[C@]12CCC(C)(C)C[C@H]1C1C(=O)C=C3[C@@]4(C)C=C(C#N)C(=O)C(C)(C)[C@@H]4CC[C@@]3(C)[C@]1(C)CC2 (some centres unmarked) [CDDO-MA]
concentration in brains of mice ([1]; 800 mg/kg diet, 2 or 4 days, FIG. 2): Significant Concentrations

CC1(C)CC[C@]2(C(=O)O)CC[C@]3(C)[C@H](C(=O)C=C4[C@@]5(C)C=C(C#N)C(=O)C(C)(C)[C@@H]5CC[C@]43C)[C@@H]2C1 [CDDO, 2-cyano-3,12-dioxooleane-1,9(11)-dien-28-oic acid]
expression of HO-1 (heme oxygenase-1 (HO-1)): rapidly increase the expression of the cytoprotective heme oxygenase-1 (HO-1) enzyme

CC1(C)CC[C@]2(C(=O)n3ccnc3)CC[C@]3(C)[C@H](C(=O)C=C4[C@@]5(C)C=C(C#N)C(=O)C(C)(C)[C@@H]5CC[C@]43C)[C@@H]2C1 [CDDO-Im]
expression of HO-1 (heme oxygenase-1 (HO-1)): rapidly increase the expression of the cytoprotective heme oxygenase-1 (HO-1) enzyme

COC(=O)[C@]12CCC(C)(C)C[C@H]1[C@H]1C(=O)C=C3[C@@]4(C)C=C(C#N)C(=O)C(C)(C)[C@@H]4CC[C@@]3(C)[C@]1(C)CC2 [CDDO-Me]
level of compound in mouse brain ([1]; fed very low levels in diet for one week (100 mg/kg diet), FIG. 1): able to reach appreciable levels in the brain; also recorded: Detectable in the Brains of Mice | inhibition of constitutive and inducible NF-κB (NF-κB): potently inhibits both constitutive and inducible NF-κB | recovery of clinical score (CS 0 no symptoms, 6 quadriplegia) (MOG-induced EAE [2]): induce full recovery of mice | recovery of clinical score (CS 0 no symptoms, 6 quadriplegia) (MOG-induced EAE [2]; listed as RTA 402): induce complete recovery of symptoms after initial relapse | recovery of clinical score (CS 0 no symptoms, 6 quadriplegia) (MOG-induced EAE [2]; listed as RTA-402): Induce Full Recovery of Mice; also recorded: Treated Animals Recover | average tissue concentration, Breast [3]: 4,389 nM | average tissue concentration, Colon [3]: 4,467 nM | average tissue concentration, Kidney [3]: 1,603 nM | average tissue concentration, Liver [3]: 926 nM | average tissue concentration, Lung [3]: 4,992 nM | average tissue concentration, Ovary [3]: 2,115 nM | average tissue concentration, Prostate [3]: 4,446 nM | tissue concentration, Brain (range of results obtained) [3]: 215 to 447 nM | delay of development of clinical scores (MOG-induced EAE [4]): modestly delayed
